These results are taken from patent US20230235374A1, “High Throughput Assays for Detecting Translation Readthrough Inducers” (The Trustees of the University of Pennsylvania, priority 2021, published 2023).

In this assay the test system is premature stop codon in Stop-POST5 complex. As to the kind of experiment: PURE-LITE readthrough assay. The note with it: FIG. 2A, read-out: apparent EC50, readthrough efficacy. It is filed as biochemical, shrimp (Artemia salina). As to the method:
FIG. 2A, FIG. 2B, FIG. 2C, FIG. 2D, FIG. 2E, and FIG. 2F are graphs showing AzAt Photoaffinity Labeling and binding. FIG. 2A is a graph showing the readthrough efficacy of AzAt measured by PURE-Lite readthrough assay. AzAt is shown to display similar sigmoidal response as ataluren and ataluren-like compounds (Ng et al., 2018), with the apparent EC50 of 50±10 μM. FIG. 2B illustrates AzAt photoincorporation into Stop-POST5 and the RNA fraction of Stop-POST5. FIG. 2C illustrates AzAt photoincorporation into 80S-IRES and the total RNA isolated from 80S.IRES. All of the labeling stoichiometries in FIG. […] are normalized to the saturation labeling of Stop-POST5, which was equal to 1.2/Stop-POST5. FIG. 2D illustrates AzAt photoincorporation into eRF1 both alone and complexed with eRF3.GDPNP. The values are normalized to the saturation labeling of isolated eRF1. FIG. 2E illustrates inhibition of AzAt photoincorporation by the addition of either ataluren or GJ072. FIG. 2F is a graph showing Photoaffinity labeling of eRF3 alone or within release factor ternary complex. […] FIG. 2G and FIG. 2H are graphs showing the RNA-seq reads coverage as the effective reads per nucleotide. PRE: treated with 300 μM prephotolysed AzAt; PAL: treated with 300 μM AzAt. 26S-rRNA nucleotides 1-45 were unable to be mapped due to the lack of sequence information. […]

Consider `[N-]=[N+]=Nc1ccc(-c2nc(-c3cccc(C(=O)O)c3)no2)cc1` [AzAt], for which the EC50 was 50 ± 10 µM.
